What all share (format): cell-based
The test system of one assay is Moraxella catarrhalis. In words: MIC against Gram-negative bacteria: Moraxella catarrhalis. Particulars: 5×10^5 CFU/mL. The gist of the method:
(§1)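 MIC = lowest concentration of recombinant protein showing no growth. Test proteins: purified human-derived EGF domain proteins, two-fold dilution series, three wells per concentration; inoculum 5×10^5 CFU/mL in LB; incubation 37° C with shaking at 175 rpm.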

For the next assay, the system named is Serratia marcescens. The experiment in a line: MIC against Gram-negative bacteria: Serratia marcescens. Particulars: 5×10^5 CFU/mL. The gist of the method: as §1
The next assay concerns Proteus vulgaris. In words: MIC against Gram-negative bacteria: Proteus vulgaris. The settings on record: 5×10^5 CFU/mL. The method, boiled down: as §1
Another assay has as its system E. coli DH5α. The experiment in a line: Antibacterial activity: MIC and growth curve against E. coli DH5α in 96-well plate. Particulars: minimal inhibitory concentration against E. coli DH5α; 96-well plate, 5×10^5 CFU/mL, 37° C., judged after 8 h. The gist of the method: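 Log-phase DH5α (OD600 about 0.5, 37° C, 185 rpm in LB) was pelleted, resuspended in fresh LB and seeded at 5×10^5 CFU/mL with recombinant protein at 50, 25 and 12.5 μg/mL (two-fold series), in triplicate. Plates were shaken at 175 rpm, 37° C, and OD600 was read every 30 min. MIC was the lowest concentration with no growth.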

Another assay deals with Proteus mirabilis. In words: MIC against Gram-negative bacteria: Proteus mirabilis. Particulars: 5×10^5 CFU/mL. The method, boiled down: as §1
The test system of the next assay is Enterobacter cloacae. The experiment in a line: MIC against Gram-negative bacteria: Enterobacter cloacae. Particulars: 5×10^5 CFU/mL. The method, boiled down: as §1
The next assay relates to Pseudomonas aeruginosa. In words: MIC against Gram-negative bacteria: Pseudomonas aeruginosa. The settings on record: 5×10^5 CFU/mL. The gist of the method:
as §1

The next assay relates to E. coli BL21. The experiment in a line: MIC against Gram-negative bacteria: E. coli BL21. The settings on record: E. coli BL21, 5×10^5 CFU/mL. The method, boiled down:
as §1

The test system of a further assay is Citrobacter diversus. In words: MIC against Gram-negative bacteria: Citrobacter diversus. The settings on record: 5×10^5 CFU/mL. The gist of the method: as §1
Another assay has as its system Aeromonas hydrophila. In words: MIC against Gram-negative bacteria: Aeromonas hydrophila. Particulars: 5×10^5 CFU/mL. The gist of the method: as §1
In another assay the test system is Klebsiella pneumonia. In words: MIC against Gram-negative bacteria: Klebsiella pneumonia. The settings on record: 5×10^5 CFU/mL. The gist of the method:
as §1

Where [1] appears, read: Moraxella catarrhalis, 96-well plate, 37° C., 10 h.
[2] abbreviates: Serratia marcescens, 96-well plate, 37° C., 10 h.
The mark [3] stands for this setting: Proteus vulgaris, 96-well plate, 37° C., 10 h.
The mark [4] stands for this setting: Proteus mirabilis, 96-well plate, 37° C., 10 h.
Setting [5] is: Enterobacter cloacae, 96-well plate, 37° C., 10 h.
Where [6] appears, read: Pseudomonas aeruginosa, 96-well plate, 37° C., 10 h.
The mark [7] stands for this setting: Citrobacter diversus, 96-well plate, 37° C., 10 h.
Where [8] appears, read: Aeromonas hydrophila, 96-well plate, 37° C., 10 h.
The mark [9] stands for this setting: Klebsiella pneumonia, 96-well plate, 37° C., 10 h.

Usually MIC stands for the lowest concentration found to suppress growth. A low value points to greater potency. As to “PRT1329 (LPAVCTPPCSAHATCKENNTCECNLDYEGDGITCT; listed as Homo sapiens)”, the “MIC against M. catarrhalis” value in the assay with Moraxella catarrhalis (setting [1]) was found to be 12.5 µg/mL. The “MIC against S. marcescens” value in the assay with Serratia marcescens (setting [2]) amounted to 25 µg/mL. Further, the “MIC against P. vulgaris” value against Proteus vulgaris (setting [3]) stood at 25 µg/mL. This substance yielded a minimum inhibitory concentration (MIC) in the assay with E. coli DH5α of 12.5 µg/mL. Also, the “MIC against P. mirabilis” value in the assay with Proteus mirabilis (setting [4]) worked out at 25 µg/mL. In addition, the “MIC against E. cloacae” value in the assay with Enterobacter cloacae (setting [5]) was 12.5 µg/mL. Also, the “MIC against P. aeruginosa” value against Pseudomonas aeruginosa (setting [6]) was 12.5 µg/mL. Also, in the assay on E. coli BL21 (96-well plate, 37° C., 10 h), the “MIC against E. coli BL21” value amounted to 50 µg/mL. In addition, in the assay with Citrobacter diversus (setting [7]), the “MIC against C. diversus” value was 25 µg/mL. Also, the “MIC against A. hydrophila” value in the assay with Aeromonas hydrophila (setting [8]) amounted to 50 µg/mL. Besides, in the assay with Klebsiella pneumonia (setting [9]), the “MIC against K. pneumonia” value was 50 µg/mL.

Turning to “PRT201 (NMSSCPLDSKGKVCSGHGVCSNEATCICDFTWAGTDCS; listed as Homo sapiens)”, in the assay on Moraxella catarrhalis (M. catarrhalis, 10 h cultivation at 37° C.), the “MIC (μg/mL) M. catarrhalis” value is 12.5 µg/mL. Further, the “MIC (μg/mL) S. marcescens” value with Serratia marcescens (S. marcescens, 10 h cultivation at 37° C.) was 25 µg/mL. The “MIC (μg/mL) P. vulgaris” value against Proteus vulgaris (P. vulgaris, 10 h cultivation at 37° C.) was determined as 50 µg/mL. The MIC in the assay with E. coli DH5α came to 50 µg/mL. Besides, the “MIC (μg/mL) P. mirabilis” value in the assay on Proteus mirabilis (P. mirabilis, 10 h cultivation at 37° C.) worked out at 25 µg/mL. In addition, the “MIC (μg/mL) E. cloacae” value in the assay on Enterobacter cloacae (E. cloacae, 10 h cultivation at 37° C.) is 50 µg/mL. The “MIC (μg/mL) P. aeruginosa” value in the assay on Pseudomonas aeruginosa (P. aeruginosa, 10 h cultivation at 37° C.) came out at 50 µg/mL. Moreover, the “MIC (μg/mL) E. coli BL21” value against E. coli BL21 (10 h cultivation at 37° C.) came to 12.5 µg/mL. The “MIC (μg/mL) C. diversus” value against Citrobacter diversus (C. diversus, 10 h cultivation at 37° C.) was determined as 50 µg/mL. Moreover, in the assay with Aeromonas hydrophila (A. hydrophila, 10 h cultivation at 37° C.), the “MIC (μg/mL) A. hydrophila” value came to 12.5 µg/mL. The “MIC (μg/mL) K. pneumonia” value against Klebsiella pneumonia (K. pneumonia, 10 h cultivation at 37° C.) was 12.5 µg/mL.

For “PRT1291 (PIHACISNPCKHGGTCHLKEGEEDGFWCICADGFEGENCE; listed as Homo sapiens)”, the “MIC against M. catarrhalis” value in the assay on Moraxella catarrhalis (setting [1]) was 12.5 µg/mL. In addition, in the assay with Serratia marcescens (setting [2]), the “MIC against S. marcescens” value is 12.5 µg/mL. In addition, in the assay with Proteus vulgaris (setting [3]), the “MIC against P. vulgaris” value was found to be 12.5 µg/mL. Moreover, the MIC in the assay on E. coli DH5α worked out at 50 µg/mL. Besides, in the assay with Proteus mirabilis (setting [4]), the “MIC against P. mirabilis” value is 50 µg/mL. In addition, in the assay with Enterobacter cloacae (setting [5]), the “MIC against E. cloacae” value was found to be 25 µg/mL. Further, the “MIC against P. aeruginosa” value in the assay with Pseudomonas aeruginosa (setting [6]) was 25 µg/mL. The “MIC against E. coli BL21” value with E. coli BL21 (96-well plate, 37° C., 10 h) turned out to be 100 µg/mL. Further, the “MIC against C. diversus” value against Citrobacter diversus (setting [7]) came out at 50 µg/mL. The “MIC against A. hydrophila” value in the assay with Aeromonas hydrophila (setting [8]) amounted to 12.5 µg/mL. Moreover, the “MIC against K. pneumonia” value with Klebsiella pneumonia (setting [9]) was 50 µg/mL.

Take “PRT137 (NPCQGSATCVNTPGERSFLCKCPPGYSGTICE; listed as Homo sapiens)”: in the assay on Moraxella catarrhalis (setting [1]), the “MIC (μg/mL) M. catarrhalis” value is 12.5 µg/mL. The “MIC (μg/mL) S. marcescens” value against Serratia marcescens (setting [2]) was found to be 50 µg/mL. In the assay on Proteus vulgaris (setting [3]), the “MIC (μg/mL) P. vulgaris” value came to 12.5 µg/mL. The substance further yielded a minimum inhibitory concentration (MIC) against E. coli DH5α of 25 µg/mL. In addition, the “MIC (μg/mL) P. mirabilis” value in the assay with Proteus mirabilis (setting [4]) came to 25 µg/mL. Besides, the “MIC (μg/mL) E. cloacae” value in the assay with Enterobacter cloacae (setting [5]) worked out at 25 µg/mL. In addition, in the assay with Pseudomonas aeruginosa (setting [6]), the “MIC (μg/mL) P. aeruginosa” value was 25 µg/mL. The “MIC (μg/mL) E. coli BL21” value with E. coli BL21 (96-well plate, 37° C., 10 h) was 12.5 µg/mL. Moreover, the “MIC (μg/mL) C. diversus” value against Citrobacter diversus (setting [7]) amounted to 25 µg/mL. For the same substance, the “MIC (μg/mL) A. hydrophila” value in the assay with Aeromonas hydrophila (setting [8]) is 12.5 µg/mL. Also, the “MIC (μg/mL) K. pneumonia” value in the assay on Klebsiella pneumonia (setting [9]) was found to be 12.5 µg/mL.

As to “PRT1391 (PLPVCQEQCSGHGTFLLDAGVCSCDPKWTGSDCS; listed as Homo sapiens)”, the “MIC against M. catarrhalis” value against Moraxella catarrhalis (Moraxella catarrhalis, 10 h cultivation at 37° C.) turned out to be 12.5 µg/mL. Moreover, in the assay with Serratia marcescens (Serratia marcescens, 10 h cultivation at 37° C.), the “MIC against S. marcescens” value was 12.5 µg/mL. In addition, in the assay with Proteus vulgaris (Proteus vulgaris, 10 h cultivation at 37° C.), the “MIC against P. vulgaris” value came to 12.5 µg/mL. In the assay on E. coli DH5α, the minimal inhibitory concentration (MIC) was 12.5 µg/mL. In addition, the “MIC against P. mirabilis” value against Proteus mirabilis (Proteus mirabilis, 10 h cultivation at 37° C.) came to 12.5 µg/mL. Moreover, the “MIC against E. cloacae” value against Enterobacter cloacae (Enterobacter cloacae, 10 h cultivation at 37° C.) amounted to 12.5 µg/mL. Moreover, the “MIC against P. aeruginosa” value in the assay on Pseudomonas aeruginosa (Pseudomonas aeruginosa, 10 h cultivation at 37° C.) came to 12.5 µg/mL. Also, in the assay with E. coli BL21 (10 h cultivation at 37° C.), the “MIC against E. coli BL21” value came out at 12.5 µg/mL. For the same substance, in the assay with Citrobacter diversus (Citrobacter diversus, 10 h cultivation at 37° C.), the “MIC against C. diversus” value was found to be 12.5 µg/mL. The “MIC against A. hydrophila” value in the assay on Aeromonas hydrophila (Aeromonas hydrophila, 10 h cultivation at 37° C.) was determined as 12.5 µg/mL. Also, the “MIC against K. pneumonia” value in the assay on Klebsiella pneumonia (Klebsiella pneumonia, 10 h cultivation at 37° C.) is 12.5 µg/mL.

For the origin of these results see patent publication US9833497B2, “Human originated EGF domain proteins and use of the same” (CHENGDU SOURCEBIO LIMITED-LIABILITY COMPANY, priority 2013, dated 2017).
